According to patent publication US8129197B2, “Cholesterol loaded insect cell membranes as test proteins” (SOLVO Biotechnológial ZRT., priority 2006, dated 2012):
Where two headings read alike, the source gives them in different places.

Columns and labels:
[1] = target: T1, wild-type ABCG2 (Homo sapiens, UniProt Q9UNQ0); experiment: Vesicular transport assay, inside-out ABCG2-Sf9 membrane vesicles
T1 sequence (Q9UNQ0 1-655): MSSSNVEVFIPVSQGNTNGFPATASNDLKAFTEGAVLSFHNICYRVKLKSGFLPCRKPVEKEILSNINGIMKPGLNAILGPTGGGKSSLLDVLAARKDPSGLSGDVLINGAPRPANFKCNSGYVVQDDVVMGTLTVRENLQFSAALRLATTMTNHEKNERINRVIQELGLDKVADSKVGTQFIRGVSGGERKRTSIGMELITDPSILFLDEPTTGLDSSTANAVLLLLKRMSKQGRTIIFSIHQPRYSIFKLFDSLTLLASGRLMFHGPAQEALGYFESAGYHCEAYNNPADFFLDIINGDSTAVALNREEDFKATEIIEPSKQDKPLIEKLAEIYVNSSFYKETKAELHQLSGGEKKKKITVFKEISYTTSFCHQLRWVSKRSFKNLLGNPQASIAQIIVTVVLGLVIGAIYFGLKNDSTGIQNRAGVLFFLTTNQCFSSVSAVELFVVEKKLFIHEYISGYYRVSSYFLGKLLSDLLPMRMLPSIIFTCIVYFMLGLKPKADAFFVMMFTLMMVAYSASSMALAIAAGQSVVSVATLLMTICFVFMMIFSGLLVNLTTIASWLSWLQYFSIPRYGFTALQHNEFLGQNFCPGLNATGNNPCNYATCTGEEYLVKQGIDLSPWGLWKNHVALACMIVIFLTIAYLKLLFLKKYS
Description: Measurement of the vesicular transport activity: The transport activity measurements were carried out with purified membrane vesicles containing ABCG2 or Bsep isolated from baculovirus infected Sf9 (Spodoptera frugiperda) cells or mammalian (ABCG2-M) cells. The membrane preparations contain 5-16% closed, inside-out oriented, membrane vesicles. The transporter pumps the molecules inside of these vesicles. The vesicles can be separated by rapidly filtrating of the membrane suspension through a glass filter or through a nitrocellulose membrane (using vacuum).
The quantitative determination of the transported molecule can be done in several ways, like: HPLC, LC/MS, but also fluorescent or radioactive labeling is also suitable. Tritium labeled substrates were used in the assays and the mode of detection was liquid-scintillation.
Measurement of the vesicular transport activity in case of ABCG2: More closely, as examples, inside-out membrane vesicles were incubated in the presence or absence of 4 mM ATP. […] The transport was stopped by addition of cold wash buffer (40 mM MOPS-Tris (pH 7.0), 70 mM KCl).
The transport was stopped by addition of cold wash buffer (10 mM Tris-HCl, pH 7.4; 250 mM sucrose and 100 mM NaCl).
For estrone-3-sulfate vesicular transport 10 mM Tris-HCl, (pH 7.4), 250 mM sucrose, and 10 mM MgCl2 containing buffer were incubated at 32° C. for 1 min. The transport was stopped by addition of cold wash buffer (10 mM Tris-HCl, pH 7.4; 250 mM sucrose and 100 mM NaCl).
The incubation mix was then rapidly filtered through class B glass fiber filters (pore size, 0.1 μm). Filters were washed with 5×200 μl of ice cold wash buffer and radioactivity retained on the filter was measured by liquid scintillation counting. ATP-dependent transport was calculated by subtracting the values obtained in the absence of ATP from those in the presence of ATP.
Exemplary Assay Design and Main Steps for ABCG2 • Prepare an appropriate concentration of membrane suspension in assay buffer; add the unlabeled and ^3H-labeled substrates to the suspension.

[2] = target: T2, ABCG2 (Homo sapiens, UniProt Q9UNQ0); experiment: Vanadate sensitive ABCG2-ATPase assay in ABCG2-Sf9 (insect cell) membranes
T2 sequence (Q9UNQ0 1-655): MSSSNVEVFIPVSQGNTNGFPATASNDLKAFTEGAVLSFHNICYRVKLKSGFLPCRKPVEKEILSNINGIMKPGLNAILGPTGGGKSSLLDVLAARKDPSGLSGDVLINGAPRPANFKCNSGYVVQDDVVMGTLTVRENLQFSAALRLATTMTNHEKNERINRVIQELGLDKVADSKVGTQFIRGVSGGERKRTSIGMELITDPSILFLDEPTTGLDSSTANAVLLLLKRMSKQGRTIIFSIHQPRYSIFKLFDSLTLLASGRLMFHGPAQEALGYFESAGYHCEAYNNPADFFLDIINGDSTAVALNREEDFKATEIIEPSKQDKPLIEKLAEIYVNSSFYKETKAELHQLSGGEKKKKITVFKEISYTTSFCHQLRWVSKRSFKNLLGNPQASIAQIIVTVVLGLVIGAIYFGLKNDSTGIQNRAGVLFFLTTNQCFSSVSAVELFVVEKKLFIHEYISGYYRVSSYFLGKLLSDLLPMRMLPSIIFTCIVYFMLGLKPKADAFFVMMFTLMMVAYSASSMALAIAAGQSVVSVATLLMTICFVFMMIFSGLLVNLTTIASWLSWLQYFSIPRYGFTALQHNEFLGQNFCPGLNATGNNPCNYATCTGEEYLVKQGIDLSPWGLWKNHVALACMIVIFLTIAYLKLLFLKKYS
Description: (§1) Measurement of transporter activity: The ATPase activity of transporters are measured based on their vanadate sensitivity as known in the literature (see Noe et al. Hepatology, 2001, Vol. 33, No. 5, pp 1223-31; Schmitt et al. J. Neural. Transm., in press; Özvegy C et al. “Functional characterization of the human multidrug transporter, ABCG2, expressed in insect cells” Biochem Biophys Res Commun. 2001 July 6; 285(1):111-7.; Sarkadi, B. et al. (1992) Expression of the human multidrug resistance cDNA in insect cells generates a high activity drug-stimulated membrane ATPase. J Biol Chem 267: 4854-4858.).
(§2) The samples treated with cyclodextrin, or cholesterol@RAMEB complex was compared with untreated vesicles.
(§3) Briefly, as an example, membrane vesicles (20 μg/well) were incubated in ATPase assay buffer (10 mM MgCl2, 40 mM MOPS-Tris (pH 7.0), 50 mM KCl, 5 mM dithiothreitol, 0.1 mM EGTA, 4 mM sodium azide, 1 mM ouabain), 5 mM ATP and various concentrations of test drugs for 40 min at 37° C. ATPase activities were determined as the difference of inorganic phosphate liberation measured with and without the presence of 1.2 mM sodium orthovanadate (vanadate-sensitive ATPase activity).
EC50 is defined according to the International Union of Pharmacology Committee (Neubig, R. R., Spedding, M., Kenakin, T. and Christopoulos, A. (2003) International Union of Pharmacology Committee on Receptor Nomenclature and Drug Classification. XXXVIII. Update on terms and symbols in quantitative pharmacology. Pharmacol Rev 55: 597-606.).
The Michaelis-Menten parameters of maximal velocity (Vmax) and drug affinity (Km) were obtained from plots of the ATPase activity as a function of test drug concentration by nonlinear regression of the following equation:
where v=enzyme activity (nmol Pi/min/mg), Vmax=maximal ATPase activity (nmol Pi/min/mg), Km=Michaelis-Menten constant for the tested substrate (nM) and [S] substrate concentration (nM). The equation 3 was used also for curve fitting on vesicular transport graphs.

[3] = target: T2, ABCG2; experiment: Vanadate sensitive ABCG2-ATPase assay in ABCG2-M (mammalian cell) membranes
Description: Human membrane vesicle preparations (ABCG2-M) as well as membrane vesicle preparations obtained from insect cells expressing ABCG2, (MXR-Sf9) were obtained from Solvo Biotechnology (Budapest, Hungary). Both membranes are overexpressing the wild type version of ABCG2. The insect membrane vesicle preparations were produced using recombinant baculoviruses encoding ABCG2 (Ozvegy et al., 2002). Sf9 cells were cultured and infected with recombinant baculovirus stocks as described earlier (Sarkadi et al., 1992). Purified membrane vesicles from baculovirus-infected Sf9 cells were prepared essentially as described previously (Sarkadi et al., 1992). Membrane protein content was determined using the BCA method (Pierce Biotechnology, Rockford, Ill., USA).
as §1, §2, §3

[4] = substrate: CN(Cc1cnc2nc(N)nc(N)c2n1)c1ccc(C(=O)N[C@@H](CCC(=O)O)C(=O)O)cc1; experiment: cells, lysate or membranes named

Nc1ncnc2c1ncn2[C@@H]1O[C@H](COP(=O)(O)OP(=O)(O)OP(=O)(O)O)[C@@H](O)[C@H]1O [ATP]
ATP concentration of maximum MTX transport rate [1]: about 5 mM | Km [1]: 600 to 800 µM | Km [2]: 2 mM | Km ([3]; read-out: KM of vanadate sensitive basal ATPase activity with respect to ATP, ABCG2-M membranes): 2.2 mM

COc1cccc2c1C(=O)c1c(O)c3c(c(O)c1C2=O)C[C@@](O)(C(=O)CO)C[C@@H]3O[C@H]1C[C@H](N)[C@H](O)[C@H](C)O1 [Doxorubicin]
Level of stimulation (vanadate sensitive ATPase activity in %) ([2]; human, 40 min, 50 uM, pH 7): 83 ± 18 (3) %

C[C@]12CC[C@@H]3c4ccc(O)cc4CC[C@H]3[C@@H]1CC[C@@H]2O[C@@H]1O[C@H](C(=O)O)[C@@H](O)[C@H](O)[C@H]1O [ESG, estradiol 17-beta glucuronide]
apparent Vmax of ESG uptake ([1]; cholesterol-loaded vesicles): 700 pmol ESG/mg membrane protein/min | apparent Vmax of ESG uptake ([1]; control Sf9 membrane vesicles): less than 50 pmol ESG/mg membrane protein/min | Km ([1]; read-out: apparent Km for ESG, cholesterol-loaded vesicles): ~45 µM

C[C@]12CC[C@@H]3c4ccc(OS(=O)(=O)O)cc4CC[C@H]3[C@@H]1CCC2=O [Estrone-3-sulfate, estrone 3-sulfate]
Vmax (ABCG2-ATPase) [2]: 35.58 nmol Pi/mg prot./min | Vmax (ABCG2-ATPase) [3]: 38.87 nmol Pi/mg prot./min

O=C(O)c1cc(/N=N/c2ccc(S(=O)(=O)Nc3ccccn3)cc2)ccc1O [Sulfasalazine, sulfasalazine]
Effect on ABCG2-ATPase activity (in words) [2]: weak activator | Level of stimulation (vanadate sensitive ATPase activity in %) ([2]; human, 40 min, 20 uM, pH 7): 71% (3) | Increase of vanadate sensitive ABCG2 ATPase activity in the presence of the substrate ([2]; human, 40 min, pH 7): 5 nmol/Pi/mg prot/min | Vanadate sensitive ABCG2 ATPase activity activated by the substrate ([2]; human, 40 min, pH 7): 58 nmol/Pi/mg prot/min | Effect on ABCG2-ATPase activity (in words) [3]: significantly stimulated | Vanadate sensitive ABCG2 ATPase activity activated by the substrate ([3]; human, 40 min, pH 7): 40 nmol/Pi/mg prot/min

CC[C@@]1(O)C(=O)OCc2c1cc1n(c2=O)Cc2cc3c(CN(C)C)c(O)ccc3nc2-1 [Topotecan, topotecan]
Level of stimulation (vanadate sensitive ATPase activity in %) ([2]; human, 40 min, 200 uM, pH 7): 31% | Effect on ABCG2-ATPase activity (in words) ([2]; human, 40 min, pH 7): can not be activated | Effect on ABCG2-ATPase activity (in words) [3]: significantly stimulated

COc1cc2ncnc(Nc3ccc(F)c(Cl)c3)c2cc1OCCCN1CCOCC1 [ZD 1839, Gefitinib]
Level of stimulation (vanadate sensitive ATPase activity in %) ([2]; human, 40 min, 5 uM, pH 7): 73 ± 19 (3) %

O=C1c2c(O)ccc(O)c2C(=O)c2c(NCCNCCO)ccc(NCCNCCO)c21 [mitoxantrone]
Effect on ABCG2-ATPase activity (in words) [2]: did not display any effect

Randomly methylated-β-cyclodextrin [CD]
Effect of membrane pretreatment on ABCG2-dependent transport activity (in words) [1]: did not significantly affect

rhodamine
Effect on ABCG2-ATPase activity (in words) ([2]; cholesterol loaded Sf9 membranes): did not display any effect

B1: wild-type ABCG2 (Homo sapiens) (protein)
chain: MSSSNVEVFIPVSQGNTNGFPATASNDLKAFTEGAVLSFHNICYRVKLKSGFLPCRKPVEKEILSNINGIMKPGLNAILGPTGGGKSSLLDVLAARKDPSGLSGDVLINGAPRPANFKCNSGYVVQDDVVMGTLTVRENLQFSAALRLATTMTNHEKNERINRVIQELGLDKVADSKVGTQFIRGVSGGERKRTSIGMELITDPSILFLDEPTTGLDSSTANAVLLLLKRMSKQGRTIIFSIHQPRYSIFKLFDSLTLLASGRLMFHGPAQEALGYFESAGYHCEAYNNPADFFLDIINGDSTAVALNREEDFKATEIIEPSKQDKPLIEKLAEIYVNSSFYKETKAELHQLSGGEKKKKITVFKEISYTTSFCHQLRWVSKRSFKNLLGNPQASIAQIIVTVVLGLVIGAIYFGLKNDSTGIQNRAGVLFFLTTNQCFSSVSAVELFVVEKKLFIHEYISGYYRVSSYFLGKLLSDLLPMRMLPSIIFTCIVYFMLGLKPKADAFFVMMFTLMMVAYSASSMALAIAAGQSVVSVATLLMTICFVFMMIFSGLLVNLTTIASWLSWLQYFSIPRYGFTALQHNEFLGQNFCPGLNATGNNPCNYATCTGEEYLVKQGIDLSPWGLWKNHVALACMIVIFLTIAYLKLLFLKKYS
Km ([4]; other: ABCG2-Sf9 membranes): 3.9 mM | Km ([4]; other: both untreated and C-CD pretreated vesicles): 0.5 mM | Km ([4]; other: untreated membranes, ± S.D.): 0.935 mM
